This is an account of results in US9068231B2, “Method for screening cancer therapeutic agent using galectin-3, GSK-3β, and fascin-1” (National Cancer Center, priority 2010, dated 2015).

Holding throughout (type): cell-based, human
For data set [1], the system named is MKN-28 cells. Description: Transfilter migration assay. Conditions: 20 hours, collagen type 1-coated filters. As for the experimental part: (§1) Transfilter migration and invasion assays were performed with 8.0-μm pore inserts in a 24-well Transwell. For this assay, MKN-28 and SNU638 cells were transfected overnight with siRNAs. Then, they were isolated and added to the upper chamber of a Transwell with 0.5 mg/mL collagen type 1 (BD Bioscience)-coated filters in migration assay. The invasion assay was performed using 1/15 diluted Matrigel (BD Bioscience)-coated filters at 2×10^4 cells/well. RPMI 1640 supplemented with 10% fetal bovine serum and 1% antibiotics was added to the lower chamber and the cells were allowed to incubate for 20 hours. Migrating and invading cells were quantified after H&E staining. Each experiment was performed in triplicate and mean values are presented. A wound healing assay was performed according to the published protocol (Liang C C, Park A Y, Guan J L. In vitro scratch assay: a convenient and inexpensive method for analysis of cell migration in vitro. Nat Protoc 2007; 2:329-33).

Data set [2] concerns MKN-28 cells. Nature of the data set: Colony formation (soft agar growth) assay. As to conditions: 3 weeks. As for the experimental part: A layer of 0.5 mL RPMI 1640 containing 0.5% agar and 5% fetal bovine serum was placed in 24-well plates. After solidification of this bottom layer, cells transfected with galectin-3 and fascin-1 siRNAs (1.25×10^4 per well) were poured into a top layer of 0.25 mL RPMI 1640 containing 0.3% agar and 5% fetal bovine serum. Colonies were scored by microscopic examination after 3 weeks. All samples were prepared in triplicate.

Data set [3] concerns fascin-1. Description: RT-PCR and Western blotting of fascin-1 after siRNA transfection in MKN-28 cells. As for the experimental part:
(A) mRNA and protein levels of galectin-3 and fascin-1 in human gastric cancer MKN-28 cells after transfection with scrambled siRNA (scRNA) or galectin-3 siRNA at two different concentrations (5 and 10 nmol/L). Total RNA and protein obtained from the cells harvested 48 hrs after the transfection were analyzed by RT-PCR and Western blotting. β-actin was used as a loading control. (B) Immunocytochemical analysis of scRNA or galectin-3 siRNA-transfected MKN-28 cells by DAPI (blue), anti-fascin-1 FITC (green) and anti-F-actin Texas Red (red) was detected with a confocal microscope. Bars represent a length of 10 μm. (C and D) A histogram depicting the migration of galectin-3 silenced cells. […] (E) Expression levels of galectin-3 and fascin-1 in SNU-638 cells were determined by Western blotting after transfection with pcDNA3.1/NT-GFP-Galectin-3 and vector control of pcDNA3.1/NT-GFP. β-actin was used as a loading control;
(A) Fascin-1 protein expression in MKN-28 cells transfected with scrambled siRNA (scRNA) or fascin-1 siRNA. β-actin was used as a loading control. […] Cell migration was measured by microscopy; […]
(§2) For use in Western blotting and immunoprecipitation, cell lysates were prepared in RIPA buffer containing a protease inhibitor cocktail. […] Proteins were detected by Western Blotting with anti-galectin-3, anti-β-catenin, anti-GSK-3β and anti-TCF-4. […]
A general note: Immunoblotting shows a protein as a band on a membrane.

The subject of another data set is fascin-1 promoter. Nature of the data set: Chromatin immunoprecipitation assay on fascin-1 promoter. As to conditions: ChIP assay, with or without galectin-3. As for the experimental part:
(§3) Whole-cell lysate was used as a positive control. […] Whole-cell lysates were used as a positive control. (C) Chromatin immunoprecipitation assay was performed as described in the Materials and Methods of the Example section. Total genomic DNA on an input lane was used as a control for the PCR reaction. (D) Luciferase activity of TCF4 in lacZ and galectin-3 overexpressing cells. Luciferase assay was performed as described in the Example section. A construct of SP1 consensus was used as a negative control. […] Lamin A/C was used as a nuclear fraction control;
Chromatin immunoprecipitation assays were performed using a chIP assay kit (Upstate), according to the manufacturer's instructions. Anti-TCF4, anti-β-catenin, anti-galectin-3, and rabbit IgG were used to immunoprecipitate DNA-containing complexes. Primer was prepared with fascin-1 promoter binding sites: fascin-1 promoter (−1321), 5′-[…]-3′ (SEQ ID NO. 11) and (−1061) 5′-[…]-3′ (SEQ ID NO. 12), followed by performing PCR.

The test system of the next data set is GSK-3β, β-catenin. Nature of the data set: Immunocytochemistry of GSK-3β and β-catenin localization. As to conditions: galectin-3-silenced cells, confocal microscope. As for the experimental part:
DAPI was used to figure out the nucleus (blue). Bars represent a 10 μm length;
(§4) Cells cultured in chamber slides were fixed and blocked with 5% bovine serum albumin (BSA) in PBS and then incubated with primary anti-galectin-3, anti-fascin-1, anti-GSK-3β, anti-β-catenin antibodies diluted (1:200) in PBS. The cells were conjugated with the secondary antibodies labeled with FITC, Cy5 (Zymed), or Texas Red-X phalloidin (Invitrogen). The samples were treated with a mounting medium, and analyzed with a confocal microscope (Carl-Zeiss).

Data set [4] relates to MKN-28 cells. Description: Immunocytochemistry (fascin-1, F-actin, cell morphology). Conditions: confocal microscopy. As for the experimental part: (§5) (A) mRNA and protein levels of galectin-3 and fascin-1 in human gastric cancer MKN-28 cells after transfection with scrambled siRNA (scRNA) or galectin-3 siRNA at two different concentrations (5 and 10 nmol/L). Total RNA and protein obtained from the cells harvested 48 hrs after the transfection were analyzed by RT-PCR and Western blotting. β-actin was used as a loading control. (B) Immunocytochemical analysis of scRNA or galectin-3 siRNA-transfected MKN-28 cells by DAPI (blue), anti-fascin-1 FITC (green) and anti-F-actin Texas Red (red) was detected with a confocal microscope. Bars represent a length of 10 μm. (C and D) A histogram depicting the migration of galectin-3 silenced cells. The results of the migration assay are presented with a statistical significance (P<0.0005) (C), and in cell photographs (D). (E) Expression levels of galectin-3 and fascin-1 in SNU-638 cells were determined by Western blotting after transfection with pcDNA3.1/NT-GFP-Galectin-3 and vector control of pcDNA3.1/NT-GFP. β-actin was used as a loading control;
(A) Fascin-1 protein expression in MKN-28 cells transfected with scrambled siRNA (scRNA) or fascin-1 siRNA. β-actin was used as a loading control. (B) Immunocytochemical analysis of MKN-28 cells transfected with scRNA or fascin-1 siRNA by DAPI (blue), anti-fascin-1 FITC (green) and anti-F-actin Texas Red (red) was conducted using confocal microscopy. Bars represent 10 μm in length. (C) Cell migration in fascin-1-silenced MKN-28 cells. Results of the migration assay are presented as a histogram, with statistical significance (P<0.0004). ([…]) (D) Colony formation assay, (E) invasion assay, and (F) wound healing assay of MKN-28 cells were performed with transfected galectin-3 and fascin-1 siRNAs. Results of the colony formation assay and invasion assay are shown as a histogram, with statistical significance (P<0.0005). Cell migration was measured by microscopy;
as §4

Another data set relates to galectin-3. Nature of the data set: RT-PCR and Western blotting of galectin-3 after siRNA transfection. As to conditions: MKN-28 cells, siRNA 5 and 10 nmol/L, 48 hrs after transfection. On the procedure:
as §5, with “control; […]” for “control;”
as §2

Data set [5] relates to MKN-28 cells. Nature of the data set: Invasion assay (Matrigel-coated filters). Conditions: 20 hours. On the procedure: as §1
The test system of data set [6] is MKN-28 cells. Description: Wound healing assay. As for the experimental part: as §1
The next data set deals with β-catenin/TCF-4. Description: Immunoprecipitation and Western blot of GSK-3β, β-catenin and TCF-4 interaction. As to conditions: MKN-28 cells, immunoprecipitation. As for the experimental part:
as §3
(§6) For use in Western blotting and immunoprecipitation, cell lysates were prepared in RIPA buffer containing a protease inhibitor cocktail. Immunoblotting was performed with anti-galectin-3, anti-fascin-1, anti-GSK-3β, anti-TCF-4 (Santa-Cruz), anti-GSK-3β[pS^[…]] (biosourse), anti-β-catenin and anti-lamin A/C (Cell-Signaling), and anti-β-actin (Sigma). Immunoprecipitation was performed with A/G agarose beads coated with anti-galectin-3 and anti-β-catenin. Proteins were detected by Western Blotting with anti-galectin-3, anti-β-catenin, anti-GSK-3β and anti-TCF-4. Mouse/rabbit IgG was used as a negative control.

Data set [7] relates to phosphorylated GSK-3β, β-catenin. Nature of the data set: Western blotting of nuclear and cytosol fractions. Conditions: MKN-28 cells. On the procedure:
as §3, §6

Data set [8] has as its system SNU638 cells. Nature of the data set: Transfilter migration assay in galectin-3-overexpressing SNU638 cells. Conditions: SNU638 cells infected with galectin-3 lenti-virus. On the procedure: (§7) (A) Expression levels of galectin-3 and fascin-1 were detected by Western blot analysis in SNU-638 cells which were infected with a lenti-virus containing LacZ or galectin-3 and then transfected with fascin-1 siRNA or scrambled RNA as a negative control. β-actin was used as a loading control. (B and C) These cells were analyzed by migration assay (B) and invasion assay (C), presented as histograms (P<0.0005);
as §1

Data set [9] has as its system SNU638 cells. Nature of the data set: Invasion assay in galectin-3-overexpressing SNU638 cells. Conditions: SNU638 cells infected with galectin-3 lenti-virus. As for the experimental part:
as §7, §1

Data set [10] concerns fascin-1. Nature of the data set: Western blot of fascin-1 in galectin-3-overexpressing SNU638 cells. As to conditions: SNU638 cells infected with galectin-3 lenti-virus. As for the experimental part:
as §7, §6
The full-length human galectin-3 gene cloned in the expression vector pcDNA3.1-NT-GFP-gal3 was amplified by PCR using a primer set of 5′-[…]-3′ (SEQ ID NO. 13) and 5′-[…]-3′ (SEQ ID NO. 14). The PCR product thus obtained was cloned into pcDNA3.1-NT-GFP using the TA cloning method (Invitrogen). […]

Regarding “5′-AUAUGAAGCACUGGUGAGGUCUAUG-3′ (listed as RNA, chemistry not given here) [galectin-3 siRNA, siRNA silencing galectin-3, obtained from Invitrogen]”, the “total number of migrated cells / cell migration” value in the data set with MKN-28 cells [1] was “reduced by almost half”. Moreover, the colony formation result with MKN-28 cells [2] is recorded as “significantly reduced”. Moreover, the “expression levels of mRNAs and proteins of fascin-1” value with fascin-1 [3] (galectin-3 siRNA 5 and 10 nmol/L, 48 hrs after transfection) was “reduction in the expression levels”. The “binding of β-catenin and TCF-4 to the promoter regions of fascin-1” value with fascin-1 promoter was “lost their binding activity”. For the same substance, in the data set on GSK-3β, β-catenin, the “localization of GSK-3β” value is “located only in cytosol” and the “localization of β-catenin” value is given as “not detected either in the nucleus or cytosol”. In the data set on MKN-28 cells [4], the F-actin localization entry is “appeared only at cell-cell contact areas”; the cell morphology result was “became round in shape and did not have any protruding regions”; the “fascin-1 expression in the cytosol (immunocytochemistry)” value was “diminished in the cytosol”. Also, the “expression levels of mRNAs and proteins of galectin-3” value in the data set with galectin-3 is “reduction in the expression levels”. Further, in the data set with MKN-28 cells [5], the cell invasion result is “significantly reduced”. The wound healing result with MKN-28 cells [6] was “significantly reduced”. Besides, in the data set with β-catenin/TCF-4, the “interaction between GSK-3β and β-catenin” value is on record as “weakened”; the “interaction between β-catenin and TCF-4” value was “diminished”. In data set [7], the “level of phosphorylated GSK-3β” value was “decreased in both the nucleus and the cytosol”; the “level of β-catenin” value was “decreased in both the nucleus and the cytosol”.

Consider “5′-UCCAGCAAGAAUGCCAGCUGCU ACU-3′ (listed as RNA, chemistry not given here) [fascin-1 siRNA, siRNA silencing fascin-1, obtained from Invitrogen; called a candidate therapeutic agent]”, for which the “total number of migrated cells / cell migration” value in the data set with MKN-28 cells [1] is listed as “decreased the migration”. Also, the colony formation entry in the data set on MKN-28 cells [2] is listed as “significantly reduced”. The “cell migration increased by galectin-3 overexpression” value in the data set with SNU638 cells [8] is listed as “significantly reduced”. The fascin-1 protein expression result in the data set with fascin-1 [3] (fascin-1 siRNA, Western blot) is reported as “reduced fascin-1 expression”. In the data set with MKN-28 cells [4], the F-actin localization result is on record as “appeared only in cell-cell contact areas” and the cell morphology entry is given as “changed to a round shape without spikes”. Besides, in the data set with SNU638 cells [9], the “cell invasion by galectin-3 overexpression” value was “inhibitory effect”. Moreover, in the data set with MKN-28 cells [5], the cell invasion entry is on record as “significantly reduced”. Also, the “level of fascin-1 protein” value with fascin-1 [10] was “diminished”. Further, in the data set with MKN-28 cells [6], the wound healing result is given as “significantly reduced”.
